According to patent publication US8664380B2, “Heterocyclic compound and use thereof” (Takeda Pharmaceutical Company Limited, priority 2008, dated 2014):
Structures can show the parent of a compound that is named as a salt.

Assays:
plasma renin activity = experiment: Ex vivo plasma renin activity (PRA) test after oral administration; assay type: in vivo, Macaca fascicularis; settings: for inhibition at 1 mg/kg: Macaca fascicularis, po, 4 h, read-out: Macaca fascicularis plasma renin activity, PPA inhibitory activity (%, n = 3-7); for Macaca fascicularis plasma renin activity, PPA inhibitory activity (%, n = 3-7): male macaca fascicularis, 1 mg/kg orally in 0.5% methylcellulose, plasma 4 hr after administration, amended with vehicle group
Method: Male macaca fascicularis was used. […] PRA was calculated by the following formula.

Human renin = target: T1, Human renin (Homo sapiens, UniProt P00797); experiment: Human renin inhibition; angiotensin I formed from angiotensinogen quantified by EIA; settings: for inhibition at 0.1 µM: read-out: Human renin inhibitory activity, inhibitory activity (%) at 0.1 μM; for Human renin inhibitory activity, inhibitory activity (%) at 0.1 μM: 0.1 μM test compound, substrate human angiotensinogen, 37° C. 30 min
T1 sequence (P00797 67-406): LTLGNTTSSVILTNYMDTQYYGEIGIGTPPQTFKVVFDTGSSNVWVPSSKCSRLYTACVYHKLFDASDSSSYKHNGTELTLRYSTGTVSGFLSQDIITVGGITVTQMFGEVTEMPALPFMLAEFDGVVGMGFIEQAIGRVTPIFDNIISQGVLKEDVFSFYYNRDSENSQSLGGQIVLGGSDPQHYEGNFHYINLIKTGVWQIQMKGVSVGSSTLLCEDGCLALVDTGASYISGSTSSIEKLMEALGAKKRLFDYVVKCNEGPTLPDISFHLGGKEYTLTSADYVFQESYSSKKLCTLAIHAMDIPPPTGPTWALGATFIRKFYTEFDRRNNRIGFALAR
Method: As a substrate for renin activity measurement, the angiotensinogen mentioned in (5) above was used. 1 μl each of the test compound (containing 100% DMSO) was added to each well of a 384-well plate (ABgene). Renin was diluted with a buffer solution for reaction (20 mM sodium phosphate (pH 7.4)) to a concentration of 57 pM, and 14 μl each of the dilution was added to each well. The dilution was left to stand at 37° C. for 10 min, and then 5 μl of each of a 6 μM solution of substrate angiotensinogen was added to each well to initiate the reaction. […] The amount of angiotensin I produced by an enzyme reaction was quantified by Enzyme Immuno Assay (EIA) described below.
Anti-angiotensin I antibody (Peninsula Laboratories Inc.) diluted 5,000-fold with PBS was added to each well of a 384 well black plate (Nalge Nunc International Co., Ltd.) by 25 μl, and left standing overnight at 4° C. to immobilize the antibody in the plate. The antibody solution was removed, PBS solution (100 μl) containing 1% BSA was added to each well, and the mixture was left standing at room temperature for 2 hr for blocking. The blocking solution was removed, and each well was washed 5 times with 100 μl of 0.05% Tween20-PBS. […] Then, a biotinated angiotensin I solution (AnaSpec, 15 μl) prepared to 1.6 nM with a buffer [20 mM tris-hydrochloric acid (pH 7.4), 150 mM sodium chloride, 0.01% BSA, 0.05% Tween20] was added to each well, mixed with a plate mixer and left standing at room temperature for 1 hr. The solutions were removed from each well, and each well was washed 5 times with 100 μl of 0.05% Tween20-PBS. Horseradish peroxydase Streptavidin (PIERCE Biotechnology inc., 25 μl) diluted to 100 ng/ml with a buffer [20 mM tris-hydrochloric acid (pH 7.4), 150 mM sodium chloride, 0.1% BSA, 0.05% Tween 20] was added to each well and the mixture was left standing at room temperature for 30 min. The solutions were removed from each well, and each well was washed 5 times with 100 μl of 0.05% Tween20-PBS. SuperSignal ELISA femto Maximum Sensitivity Substrate (PIERCE Biotechnology Inc.) was added by 25 μl and luminescence intensity was measured by EnVision (Perkin Elmer Inc.). An analytical curve was drawn from the luminescence intensity of wells containing an angiotensin I standard solution, and the amount of angiotensin I produced by an enzyme reaction was calculated and used as an index of renin activity.

Compound | inhibition at 1 mg/kg (plasma renin activity) [%] | inhibition at 0.1 µM (Human renin) [%] | also measured
COCCCCn1c(C(=O)N(CC2CC2)[C@@H]2CNC[C@H](C(=O)N3CCOCC3)C2)nc2ccccc21 [Example 253, N-(cyclopropylmethyl)-1-(4-methoxybutyl)-N-[(3S,5R)-5-(morpholin-4-ylcarbonyl)piperidin-3-yl]-1H-benzimidazole-2-carboxamide dihydrochloride] | 77 | – | –
CCC(O)[C@H]1CNC[C@@H](N(CC(C)C)C(=O)c2nc3ccccc3n2CCCCOC)C1 (stereo partly drawn) [Example 76, N-[(3S, 5R)-5-(1-hydroxypropyl)piperidin-3-yl]-1-(4-methoxybutyl)-N-(2-methylpropyl)-1H-benzimidazole-2-carboxamide dihydrochloride] | 79 | – | –
COCCCCn1c(C(=O)N(CC(C)C)[C@@H]2CNC[C@H](C(=O)O)C2)nc2ccccc21 [Example 33, (3R,5S)-5-[{[1-(4-methoxybutyl)-1H-benzimidazol-2-yl]carbonyl}(2-methylpropyl)amino]piperidine-3-carboxylic acid dihydrochloride] | 77 | – | –
CC(C)CN(C(=O)c1nc2ccccn2c1COc1ccccc1)[C@@H]1CNC[C@H](C(=O)N2CCOCC2)C1 [Example 117, N-(2-methylpropyl)-N-[(3S, 5R)-5-(morpholin-4-ylcarbonyl)piperidin-3-yl]-3-(phenoxymethyl)imidazo[1,2-a]pyridine-2-carboxamide dihydrochloride] | – | 98 | –
N-{(3S, 5R)-5-[(1S)-1-hydroxypropyl]piperidin-5-yl}-1-(4-methoxybutyl)-N-(2-methylpropyl)-1H-benzimidazole-2-carboxamide dihydrochloride [Example 75-1] | – | – | Human renin inhibitory activity, inhibitory activity (%) at 0.1 μM (Human renin): 95%; Macaca fascicularis plasma renin activity, PPA inhibitory activity (%, n = 3-7) (plasma renin activity): 86%
COCCCCn1c(C(=O)N(CC(C)C)[C@@H]2CNC[C@H](C(O)COC)C2)nc2ccccc21 (stereo partly drawn) [Example 48, N-[(3S,5R)-5-(1-hydroxy-2-methoxyethyl)piperidin-3-yl]-1-(4-methoxybutyl)-N-(2-methylpropyl)-1H-benzimidazole-2-carboxamide dihydrochloride] | 78 | 97 | –
COCCCCn1c(C(=O)N(CC(C)C)[C@@H]2CNC[C@H](C(=O)OCc3oc(=O)oc3C)C2)nc2ccccc21 [Example 7, (5-methyl-2-oxo-1,3-dioxol-4-yl)methyl (3R,5S)-5-[{[1-(4-methoxybutyl)-1H-benzimidazol-2-yl]carbonyl}(2-methylpropyl)amino]piperidine-3-carboxylate dihydrochloride] | 93 | – | –
COCCCCn1c(C(=O)N(CC(C)C)[C@@H]2CNC[C@H](C(=O)N3CCCC3)C2)nc2ccc(OC)cc21 [Example 62, 6-methoxy-1-(4-methoxybutyl)-N-(2-methylpropyl)-N-{(3S,5R)-5-(pyrrolidin-1-ylcarbonyl)piperidin-3-yl}-1H-benzimidazole-2-carboxamide dihydrochloride] | 75 | – | –
N-{(3S,5R)-5-[(1R)-1-hydroxyethyl]piperidin-5-yl}-1-(4-methoxybutyl)-N-(2-methylpropyl)-1H-benzimidazole-2-carboxamide carboxamide dihydrochloride [Example 74-2] | – | – | Human renin inhibitory activity, inhibitory activity (%) at 0.1 μM (Human renin): 96%; Macaca fascicularis plasma renin activity, PPA inhibitory activity (%, n = 3-7) (plasma renin activity): 54%
COCCCCn1c(C(=O)N(CC(C)C)[C@@H]2CNC[C@H](C(C)O)C2)nc2ccccc21 (stereo partly drawn) [Example 42, N-[(3S,5R)-5-(1-hydroxyethyl)piperidin-3-yl]-1-(4-methoxybutyl)-N-(2-methylpropyl)-1H-benzimidazole-2-carboxamide dihydrochloride] | 70 | – | –
COCCCCc1c(C(=O)N(CC(C)C)[C@@H]2CNC[C@H](C(=O)N3CCOCC3)C2)nnn1-c1ccccc1F [Example 233, 1-(2-fluorophenyl)-5-(4-methoxybutyl)-N-(2-methylpropyl)-N-[(3S,5R)-5-(morpholin-4-ylcarbonyl)piperidin-3-yl]-1H-1,2,3-triazole-4-carboxamide hydrochloride] | 67 | 97 | –
COCCCCn1c(C(=O)N(CC(C)C)[C@@H]2CNC[C@H](C(=O)N3CCOCC3)C2)nc2ccccc21 [Example 49, 1-(4-methoxybutyl)-N-(2-methylpropyl)-N-[(3S,5R)-5-(morpholin-4-ylcarbonyl)piperidin-3-yl]-1H-benzimidazole-2-carboxamide methanesulfonate] | – | 97 | –
COCCCCn1c(C(=O)N(CC(C)C)[C@@H]2CNC[C@H](C(N)=O)C2)nc2ccccc21 [Example 25, N-[(3S,5R)-5-carbamoylpiperidin-3-yl]-1-(4-methoxybutyl)-N-(2-methylpropyl)-1H-benzimidazole-2-carboxamide dihydrochloride] | 79 | 98 | –
COCCCCc1c(C(=O)N(CC(C)C)[C@@H]2CNC[C@H](C(=O)N3CCOCC3)C2)nnn1-c1ccccc1Cl [Example 235, 1-(2-chlorophenyl)-5-(4-methoxybutyl)-N-(2-methylpropyl)-N-[(3S,5R)-5-(morpholin-4-ylcarbonyl)piperidin-3-yl]-1H-1,2,3-triazole-4-carboxamide hydrochloride] | 62 | 97 | –
COCCCCn1c(C(=O)N(CC(C)C)[C@@H]2CNC[C@H](C(=O)N3CCOCC3)C2)nc2ccccc21 [Example 10, 1-(4-methoxybutyl)-N-(2-methylpropyl)-N-[(3S,5R)-5-(morpholin-4-ylcarbonyl)piperidin-3-yl]-1H-benzimidazole-2-carboxamide dihydrochloride] | 72 | – | Human renin inhibitory activity, inhibitory activity (%) at 0.1 μM (Human renin): 97%
CCCN(C(=O)c1nc2ccccc2n1CCCCOC)[C@@H]1CNC[C@H](C(=O)N2CCOCC2)C1 [Example 255, 1-(4-methoxybutyl)-N-[(3S,5R)-5-(morpholin-4-ylcarbonyl)piperidin-3-yl]-N-propyl-1H-benzimidazole-2-carboxamide dihydrochloride] | 84 | – | –
COCCCCn1c(C(=O)N(CC(C)C)[C@@H]2CNC[C@H](C(=O)N3CCCC3)C2)nc2cc(F)ccc21 [Example 18, 5-fluoro-1-(4-methoxybutyl)-N-(2-methylpropyl)-N-[(3S,5R)-5-(pyrrolidin-1-ylcarbonyl)piperidin-3-yl]-1H-benzimidazole-2-carboxamide dihydrochloride] | 89 | – | –
COCCCCn1c(C(=O)N(CC(C)C)[C@@H]2CNC[C@H](C(=O)N3CCCCC3)C2)nc2ccccc21 [Example 21, 1-(4-methoxybutyl)-N-(2-methylpropyl)-N-[(3S,5R)-5-(piperidin-1-ylcarbonyl)piperidin-3-yl]-1H-benzimidazole-2-carboxamide dihydrochloride] | 85 | – | –
COCCCCn1c(C(=O)N(CC(C)C)[C@@H]2CNC[C@H](C(=O)N3CCOCC3)C2)cc2ccccc21 [Example 3, 1-(4-methoxybutyl)-N-(2-methylpropyl)-N-[(3S,5R)-5-(morpholin-4-ylcarbonyl)piperidin-3-yl]-1H-indole-2-carboxamide hydrochloride] | – | 96 | –
COCCCCn1c(C(=O)N(CC(C)C)[C@@H]2CNC[C@H](C(=O)N3CCOCC3)C2)nc2ccc(OC)cc21 [Example 60, 6-methoxy-1-(4-methoxybutyl)-N-(2-methylpropyl)-N-{(3S,5R)-5-(morpholin-4-ylcarbonyl)piperidin-3-yl}-1H-benzimidazole-2-carboxamide dihydrochloride] | 85 | – | –
COCCOCc1c(C(=O)N(CC(C)C)[C@@H]2CNC[C@H](C(=O)N3CCOCC3)C2)nc2ccccn12 [Example 4, 3-[(2-methoxyethoxy)methyl]-N-(2-methylpropyl)-N-[(3S,5R)-5-(morpholin-4-ylcarbonyl)piperidin-3-yl]imidazo[1,2-a]pyridine-2-carboxamide dihydrochloride] | – | 96 | –
COCCCCn1c(C(=O)N(CC(C)C)[C@@H]2CNC[C@H](C(=O)N3CCOCC3)C2)nc2ccc(F)cc21 [Example 12, 6-fluoro-1-(4-methoxybutyl)-N-(2-methylpropyl)-N-[(3S,5R)-5-(morpholin-4-ylcarbonyl)piperidin-3-yl]-1H-benzimidazole-2-carboxamide dihydrochloride] | – | 97 | –
COCCCCn1c(C(=O)N(CC(C)C)[C@@H]2CNC[C@H](C(C)(C)O)C2)nc2ccccc21 [Example 38, N-[(3S,5R)-5-(1-hydroxy-1-methylethyl)piperidin-3-yl]-1-(4-methoxybutyl)-N-(2-methylpropyl)-1H-benzimidazole-2-carboxamide dihydrochloride] | – | 98 | –
COCCCCn1c(C(=O)N(CC(C)C)[C@@H]2CNC[C@H](C(=O)N3CCOCC3)C2)nc2ccc(F)cc21 [Example 11, 6-fluoro-1-(4-methoxybutyl)-N-(2-methylpropyl)-N-[(3S,5R)-5-(morpholin-4-ylcarbonyl)piperidin-3-yl]-1H-benzimidazole-2-carboxamide dihydrochloride] | 89 | – | –
COCCCn1c(C(=O)N(CC(C)C)[C@@H]2CNC[C@H](C(=O)N3CCOCC3)C2)nc2ccccc21 [Example 85, 1-(3-methoxypropyl)-N-(2-methylpropyl)-N-[(3S, 5R)-5-(morpholin-4-ylcarbonyl)piperidin-3-yl]-1H-benzimidazole-2-carboxamide 1/2 sulfate] | – | 97 | –
